Measurements as given in ChEMBL document CHEMBL4270499, “Recent discoveries of anticancer flavonoids” (Eur J Med Chem, 2017).
In brackets after ≈: the same amount, converted by molar mass.

Key:
Caco-2 = assay: Cytotoxicity in human Caco2 cells after 72 hrs by MTT assay; type: functional, cell-based; conditions: Caco-2, 72 h
K562 [1] = assay: Cytotoxicity in human K562 cells by SRB assay; type: functional, cell-based
CCRF-CEM = assay: Cytotoxicity in human CCRF-CEM cells by resazurin reduction assay; type: functional, cell-based
A-375 = assay: Cytotoxicity in human A375 cells; type: functional, cell-based
K562 [2] = assay: Cytotoxicity in human K562 cells after 24 hrs by trypan blue exclusion assay; type: functional, cell-based; conditions: K562, 24 h
[3] = Inhibition of nuclear factor-kappa-B (unknown origin) expressed in human K562 cells pre-incubated for 2 hrs followed by TNFalpha stimulation for 6 hrs by luciferase reporter gene assay; type: cell-based

O=c1c(O)c(-c2ccccc2)oc2ccccc12 [FLAVONOL]
IC50 (Caco-2): 42.1 µM

C[C@@H]1O[C@@H](Oc2c(-c3cc(O)c(O)c(O)c3)oc3cc(O)cc(O)c3c2=O)[C@H](O)[C@H](OC(=O)c2cc(O)c(O)c(O)c2)[C@H]1O
IC50 (K562 [1]): 30.5 µg/mL

COc1ccc([C@@H]2CC(=O)c3c(O)cc(O)cc3O2)cc1O [HESPERETIN]
IC50 (Caco-2): 66.7 µM

COc1cc(O)cc(O)c1C(=O)/C=C/c1ccccc1 [CARDAMOMIN]
IC50 (CCRF-CEM): ≤ 10 µM

O=C1c2ccc(O)cc2O[C@H](c2ccc(O)c(O)c2)[C@H]1O [FUSTIN]
IC50 (K562 [1]): > 100 µg/mL

COc1cc(O)cc(OC)c1C(=O)/C=C/c1ccccc1
IC50 (CCRF-CEM): ≤ 10 µM

COc1cc(O)c(OC)c(O)c1C(=O)/C=C/c1ccccc1
IC50 (CCRF-CEM): ≤ 10 µM

O=c1c(O)c(-c2ccc(O)c(O)c2)oc2cc(O)cc(O)c12 [QUERCETIN]
IC50 (A-375): 0.00154 µg/mL (≈ 0.0051 µM)

O=c1c(O)c(-c2ccc(O)cc2)oc2cc(O)cc(O)c12 [KAEMPFEROL]
IC50 (A-375): 0.012 µg/mL (≈ 0.0421 µM)

CC1=Cc2c(C(C)C)ccc(C)c2C(=O)C1=O
IC50 (K562 [1]): 1.45 µM

O=c1cc(-c2ccccc2)oc2ccccc12 [FLAVONE]
IC50 (Caco-2): 21 µM

C[C@H]1O[C@H](Oc2c(-c3ccc(O)cc3)oc3cc(O)cc(O)c3c2=O)[C@@H](O)[C@@H](O)[C@@H]1O (single isomer, unassigned) [KAEMPFEROL-3-O-RHAMNOSIDE]
IC50 (K562 [2]): 15.2 µM | IC50 [3]: 4.1 µM

O=c1[nH]cc(F)c(=O)[nH]1 [FLUOROURACIL]
IC50 (Caco-2): 60 µM

O=c1cc(-c2ccccc2)oc2cc(O)cc(O)c12 [CHRYSIN]
IC50 (Caco-2): 9.5 µM
